Laboratory results as given in patent EP0636633A1, “A triterpenoid saponin, extraction thereof and use to treat or prevent diabetes mellitus” (KOWA CHEMICAL INDUSTRIES CO., LTD., priority 1993, dated 1995).

What was measured:
DDF male mice = test: Acute toxicity test, forced oral administration; conditions: for Number of dead animals: mouse, in vivo, po
Protocol: An acute toxicity test was effected by the following procedure.
Use was made of DDF male mice having a weight of 25 g, and each group consisted of 10 animals. The animals were ingested a solid feed (for breeding) while they freely got tap water as drinking water.
The triterpenoid saponin was suspended in 1% CMC physiological saline to a concentration of 200 mg/ml.
The test substance was administered with a probe by forced oral administration. The dose was 5000 mg/kg for one group and 2500 mg/kg for another group. Test period was 7 days. After the administration, the animals were continuously observed for 3 hr, and, thereafter, observation was effected of general symptoms every 6 hr.

sweet taste responses = test: sweet taste response inhibition test; type: in vivo; conditions: for taste of Aqueous Sucrose Solution, panelists ①②③④⑤: after 0.08% sample solution kept in mouth 2 min
Protocol: A sweet taste response inhibition test was effected for the triterpenoid saponin of the present invention and Gymnemic acid 1 and Gymnemic acid 2 obtained from Gymnema sylvestre, R. Br. known to have an inhibitory effect on glucose adsorption.
The triterpenoid saponin prepared in Example 1 and Gymnemic acid 1 and Gymnemic acid 2 were dissolved in a 0.01 M/liter aqueous sodium bicarbonate (NaHCO₃) solution to prepare a 0.08% triterpenoid saponin solution, a 0.08% Gymnemic acid 1 solution and a 0.08 % Gymnemic acid 2 solution.
Separately, 0.1 M/liter, 0.2 M/liter, 0.3 M/liter, 0.4 M/liter and 0.5 M/liter aqueous sucrose solutions were previously prepared. The sweet taste response inhibition test was effected according to the following procedure.
• 1) 5 ml of the triterpenoid saponin solution or Gymnemic acid 1 or 2 solution was kept in mouth so that it was spread in the whole mouth. • 2) 2 min after that, the sample solution was spit out, and the mouth was sufficiently rinsed with distilled water. • 3) The above-described aqueous sucrose solutions were successively kept in the mouth in the order of concentration from the lowest to the highest, and the sucrose concentration of the solution which was first sweet to the taste was recorded.

## CC1(C)CC[C@]2(CO)[C@@H](O)C[C@]3(C)C(=CC[C@@H]4[C@@]5(C)CC[C@H](O[C@@H]6O[C@H](C(=O)O)[C@@H](O)[C@H](O)[C@H]6O[C@@H]6O[C@H](CO)[C@@H](O)[C@H](O)[C@H]6O)C(C)(C)[C@@H]5CC[C@]43C)[C@@H]2C1 [triterpenoid saponin, (3β,16β)-16,28-dihydroxyolean-12-en-3-yl-2-O-β-D-glucopyranosyl-β-D-glucopyranosiduronic acid]
DDF male mice; Dose 2500 mg/kg, oral, 7 days
  Other general symptoms: Do.
DDF male mice; Dose 5000 mg/kg, oral, 7 days
  Other general symptoms: None of the animals exhibited any abnormal symptom.
DDF male mice; acute toxicity test, oral, mice, 7 days
  toxicity: no toxicity was observed
DDF male mice; 2500 mg/kg
  Number of dead animals: 0
DDF male mice; 5000 mg/kg
  Number of dead animals: 0
Sweet taste responses; 0.08% sample solution
  inhibitory effect on the sweet taste responses: no inhibitory effect on the sweet taste responses
Sweet taste responses; sucrose 0.1 M/liter
  taste of Aqueous Sucrose Solution, panelists ①②③④⑤: Δ○○Δ○
Sweet taste responses; sucrose 0.2 M/liter
  taste of Aqueous Sucrose Solution, panelists ①②③④⑤: ○○○○○
